Measured values from patent US10173991B2, “Sulfone amide linked benzothiazole inhibitors of endothelial lipase” (BRISTOL-MYERS SQUIBB COMPANY, priority 2014, dated 2019).

The molecules below were run against Endothelial lipase (EL) (Homo sapiens (Human), UniProt Q9Y5X9) (assay: Endothelial lipase (EL) enzymatic assay with fluorescent substrate A10070 in DMPG vesicles).
Assay type: biochemical
How it was run: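 Compounds were preincubated with enzyme for 30 min at 37° C before FRET-substrate vesicles (A10070 in DMPG, 0.11 mole fraction) were added. Reaction rates were obtained from the 300–900 sec slope of fluorescence at 490/530 nm.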

Sequence of Endothelial lipase (EL) (Q9Y5X9 21-500): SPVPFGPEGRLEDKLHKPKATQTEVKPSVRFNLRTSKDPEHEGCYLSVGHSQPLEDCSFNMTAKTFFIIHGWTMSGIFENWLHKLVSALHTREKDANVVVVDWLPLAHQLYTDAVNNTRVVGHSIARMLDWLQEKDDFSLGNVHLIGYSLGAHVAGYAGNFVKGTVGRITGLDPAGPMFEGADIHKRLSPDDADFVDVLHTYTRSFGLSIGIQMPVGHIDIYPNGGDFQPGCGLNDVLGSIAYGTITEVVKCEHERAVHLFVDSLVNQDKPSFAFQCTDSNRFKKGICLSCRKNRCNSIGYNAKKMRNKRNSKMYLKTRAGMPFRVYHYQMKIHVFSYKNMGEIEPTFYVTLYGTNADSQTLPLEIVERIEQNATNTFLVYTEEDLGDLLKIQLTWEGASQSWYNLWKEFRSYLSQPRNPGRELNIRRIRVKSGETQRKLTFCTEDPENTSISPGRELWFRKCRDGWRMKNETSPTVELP

| IC50 | Compound |
| --- | --- |
| 229 nM | COCCS(=O)(=O)C(C(=O)NCC(=O)NC1CC1)c1nc2cc(C(F)(F)F)c(-c3cnnc(C)c3)cc2s1 (stereo not shown) [Example 187, N-[(cyclopropyl-carbamoyl)methyl]-2-(2-methoxyethane-sulfonyl)-2-[6-(6-methylpyridazin-4-yl)-5-(trifluoromethyl)-1,3-benzothiazol-2-yl]acetamide] |
| 9 nM | CC(C)S(=O)(=O)C(C(=O)NCC(=O)NC1CC1)c1nc2cc(-c3ccc4cnn(C)c4c3)c(F)cc2s1 (stereo not shown) [Example 273, N-[(cyclopropyl-carbamoyl)methyl]-2-[6-fluoro-5-(1-methyl-1H-indazol-6-yl)-1,3-benzothiazol-2-yl]-2-(propane-2-sulfonyl)acetamide] |
| 11 nM | COCCS(=O)(=O)C(C(=O)NCC(=O)NC1CC1)c1nc2cc(F)c(-c3ccc4c(c3)CCN4C(C)=O)cc2s1 (stereo not shown) [Example 416, 2-[6-(1-acetyl-2,3-dihydro-1H-indol-5-yl)-5-fluoro-1,3-benzothiazol-2-yl]-N-[(cyclopropyl-carbamoyl)methyl]-2-(2-methoxyethane-sulfonyl)acetamide] |
| 77 nM | COCCS(=O)(=O)C(C(=O)NCC(=O)NC1CC1)c1nc2cc(-c3c(C)ccnc3F)ccc2s1 (stereo not shown) [Example 92, N-[(cyclopropyl-carbamoyl)methyl]-2-[5-(2-fluoro-4-methylpyridin-3-yl)-1,3-benzothiazol-2-yl]-2-(2-methoxyethane-sulfonyl) acetamide] |
| 8 nM | CS(=O)(=O)C(C(=O)NCC(=O)NC1CC1)c1nc2cc(F)c(-c3ccc(-n4ccccc4=O)cc3)cc2s1 (stereo not shown) [Example 200, N-[(cyclopropyl-carbamoyl)methyl]-2-{5-fluoro-6-[4-(2-oxo-1,2-dihydropyridin-1-yl)phenyl]-1,3-benzothiazol-2-yl}-2-methanesulfonyl-acetamide] |
| 48 nM | Cn1ccc(-c2ccc3sc(C(C(=O)NCC(=O)NC4CC4)S(=O)(=O)c4ccccc4)nc3c2)cc1=O (stereo not shown) [Example 439, 2-(benzenesulfonyl)-N-[(cyclopropyl-carbamoyl)methyl]-2-[5-(1-methyl-2-oxo-1,2-dihydropyridin-4-yl)-1,3-benzothiazol-2-yl]acetamide] |
| 38 nM | CC(C)S(=O)(=O)C(C(=O)NCC(=O)NC1CC1)c1nc2cc(-c3ccc4c(c3)CC(=O)N4)c(F)cc2s1 (stereo not shown) [Example 266, N-[(cyclopropyl-carbamoyl)methyl]-2-[6-fluoro-5-(2-oxo-2,3-dihydro-1H-indol-5-yl)-1,3-benzothiazol-2-yl]-2-(propane-2-sulfonyl)acetamide] |
| 63 nM | COCCS(=O)(=O)C(C(=O)NCC(=O)NC1CC1)c1nc2cc(-c3cccc(C(=O)NCCO)c3)ccc2s1 (stereo not shown) [Example 399, 3-[2-({[(cyclopropyl-carbamoyl)methyl]carbamoyl}(2-methoxyethane-sulfonyl)methyl)-1,3-benzothiazol-5-yl]-N-(2-hydroxyethyl) benzamide] |
| 34 nM | COCCS(=O)(=O)C(C(=O)NCC(=O)NC1CC1)c1nc2cc(Cl)c(-c3ccnn3C)cc2s1 (stereo not shown) [Example 107] |
| 3 nM | CS(=O)(=O)C(C(=O)NCC(=O)NC1CC1)c1nc2cc(F)c(-c3ccc4[nH]c(=O)ccc4c3)cc2s1 (stereo not shown) [Example 197, N-[(cyclopropyl-carbamoyl)methyl]-2-[5-fluoro-6-(2-oxo-1,2-dihydroquinolin-6-yl)-1,3-benzothiazol-2-yl]-2-methanesulfonyl-acetamide] |
| 21 nM | COCCS(=O)(=O)C(C(=O)NCC(=O)NC1CC1)c1nc2ccc(-c3ccc(NC(=O)OC)cc3C)cc2s1 (stereo not shown) [Example 30, methyl N-{4-[2-({[(cyclopropy-lcarbamoyl)methyl]carbamoyl}(2-methoxyethane-sulfonyl)methyl)-1,3-benzothiazol-6-yl]-3-methylphenyl} carbamate] |
| 8 nM | CN(C)S(=O)(=O)C(C(=O)NCC(=O)NC1CC1)c1nc2c(F)cc(-c3cnc(-c4ccccc4)nc3)cc2s1 (stereo not shown) [Example 500, N-[(cyclopropyl-carbamoyl)methyl]-2-(dimethyl-sulfamoyl)-2-[4-fluoro-6-(2-phenylpyrimidin-5-yl)-1,3-benzothiazol-2-yl]acetamide] |
| 5 nM | O=C(CNC(=O)C(c1nc2cc(F)c(-c3ccc(-n4cnnn4)cc3)cc2s1)S(=O)(=O)CCC(F)(F)F)NC1CC1 (stereo not shown) [Example 142, N-[(cyclopropyl-carbamoyl)methyl]-2-{5-fluoro-6-[4-(1H-1,2,3,4-tetrazol-1-yl)phenyl]-1,3-benzothiazol-2-yl}-2-(3,3,3-trifluoropropane-sulfonyl) acetamide] |
| 56 nM | COCCS(=O)(=O)C(C(=O)NCC(=O)NC1CC1)c1nc2cc(C(F)(F)F)c(-c3cnc(C)nc3)cc2s1 (stereo not shown) [Example 178, N-[(cyclopropyl-carbamoyl)methyl]-2-(2-methoxyethane-sulfonyl)-2-[6-(2-methylpyrimidin-5-yl)-5-(trifluoromethyl)-1,3-benzothiazol-2-yl]acetamide] |
| 37 nM | Cc1cc(-c2cc3sc(C(C(=O)NCC(=O)NC4CC4)S(=O)(=O)c4cccc(Cl)c4)nc3cc2F)cnn1 (stereo not shown) [Example 443, 2-(3-chlorobenzene-sulfonyl)-N-[(cyclopropyl-carbamoyl)methyl]-2-[5-fluoro-6-(6-methylpyridazin-4-yl)-1,3-benzothiazol-2-yl}acetamide] |
| 91 nM | COCCNC(=O)c1ccc(-c2ccc3nc(C(C(=O)NCC(=O)NC4CC4)S(=O)(=O)Cc4ccc(F)cc4)sc3c2)cc1 (stereo not shown) [Example 226, 4-[2-({[(cyclopropyl-carbamoyl)methyl]carbamoyl}(4-fluorophenyl)methanesulfonyl-methyl)-1,3-benzothiazol-6-yl]-N-(2-methoxyethyl) benzamide] |
| 16 nM | O=C(CNC(=O)C(c1nc2ccc(-c3ccccc3)cc2s1)S(=O)(=O)c1ccc(F)cc1)NC1CC1 (stereo not shown) [Example 449, N-[(cyclopropyl-carbamoyl)methyl]-2-(4-fluorobenzene-sulfonyl)-2-(6-phenyl-1,3-benzothiazol-2-yl)acetamide] |
| 39 nM | COCCS(=O)(=O)C(C(=O)NCC(=O)NC1CC1)c1nc2cc(OC)c(-c3cccnc3F)cc2s1 (stereo not shown) [Example 219, N-[(cyclopropyl-carbamoyl)methyl]-2-[6-(2-fluoropyridin-3-yl)-5-methoxy-1,3-benzothiazol-2-yl]-2-(2-methoxyethane-sulfonyl) acetamide] |
| 6 nM | O=C(CNC(=O)C(c1nc2cc(F)c(-c3ccn(Cc4ccccc4)c(=O)c3)cc2s1)S(=O)(=O)CCC(F)(F)F)NC1CC1 (stereo not shown) [Example 136, 2-[6-(1-benzyl-2-oxo-1,2-dihydropyridin-4-yl)-5-fluoro-1,3-benzothiazol-2-yl]-N-[(cyclopropyl-carbamoyl)methyl]-2-(3,3,3-trifluoropropane-sulfonyl) acetamide] |
| 8 nM | COC(=O)N(C)c1cccc(-c2cc3sc(C(C(=O)NCC(=O)NC4CC4)S(C)(=O)=O)nc3cc2F)c1 (stereo not shown) [Example 547, methyl N-{3-[2-({[(cyclopropyl-carbamoyl)methyl]carbamoyl} (methanesulfonyl)methyl)-5-fluoro-1,3-benzothiazol-6-yl]phenyl}-N-methylcarbamate] |
| 103 nM | CC(C)(C)OC(=O)N1CC(S(=O)(=O)C(C(=O)NCC(=O)NC2CC2)c2nc3ccc(-c4ccc(F)nc4)cc3s2)C1 (stereo not shown) [Example 227, tert-butyl 3-({[(cyclopropyl-carbamoyl)methyl]carbamoyl}[6-(6-fluoropyridin-3-yl)-1,3-benzothiazol-2-yl]methanesulfonyl) azetidine-1-carboxylate] |
| 8 nM | CC(C)S(=O)(=O)C(C(=O)NCC(=O)NC1CC1)c1nc2cc(-c3cn(C)c(=O)c4ccccc34)c(F)cc2s1 (stereo not shown) [Example 276, N-[(cyclopropyl-carbamoyl)methyl]-2-[6-fluoro-5-(2-methyl-1-oxo-1,2-dihydro-isoquinolin-4-yl)-1,3-benzothiazol-2-yl]-2-(propane-2-sulfonyl) acetamide] |
| 53 nM | CC(C)OCCNC(=O)CNC(=O)C(c1nc2cc(F)cc(-c3ccc(F)nc3)c2s1)S(=O)(=O)c1ccc(F)cc1 (stereo not shown) [Example 465, 2-[5-fluoro-7-(6-fluoropyridin-3-yl)-1,3-benzothiazol-2-yl]-2-(4-fluorobenzene-sulfonyl)-N-({[2-(propan-2-yloxy)ethyl]carbamoyl}methyl)acetamide] |
| 9 nM | CC(C)S(=O)(=O)C(C(=O)NCC(=O)NC1CC1)c1nc2cc(F)c(-c3ccc(NC(N)=O)cc3)cc2s1 (stereo not shown) [Example 5, 2-{6-[4-(carbamoyl-amino)phenyl]-5-fluoro-1,3-benzothiazol-2-yl}-N-[(cyclopropyl-carbamoyl)methyl]-2-(propane-2-sulfonyl) acetamide] |
| 48 nM | O=C(CNC(=O)C(c1nc2cc(F)c(-c3ccc(F)nc3)cc2s1)S(=O)(=O)N1CCOCC1)NC1CC1 (stereo not shown) [Example 486, N-[(cyclopropyl-carbamoyl)methyl]-2-[5-fluoro-6-(6-fluoropyridin-3-yl)-1,3-benzothiazol-2-yl]-2-(morpholine-4-sulfonyl)acetamide] |
| 11 nM | COCCS(=O)(=O)C(C(=O)NCC(=O)NC1CC1)c1nc2cc(F)c(-c3cnc(C)nc3)cc2s1 (stereo not shown) [Example 156, N-[(cyclopropyl-carbamoyl)methyl]-2-[5-fluoro-6-(2-methylpyrimidin-5-yl)-1,3-benzothiazol-2-yl]-2-(2-methoxyethane-sulfonyl) acetamide] |
| 36 nM | CS(=O)(=O)C(C(=O)NCC(=O)NC1CC1)c1nc2cc(-c3ccc4c(c3)NC(=O)C4)c(F)cc2s1 (stereo not shown) [Example 365, N-[(cyclopropyl-carbamoyl)methyl]-2-[6-fluoro-5-(2-oxo-2,3-dihydro-1H-indol-6-yl)-1,3-benzothiazol-2-yl]-2-methanesulfonyl-acetamide] |

| Compound | IC50 |
| --- | --- |
| CC(C)S(=O)(=O)C(C(=O)NCC(=O)NC1CC1)c1nc2cc(F)c(-c3cn(C)c(=O)c4ccccc34)cc2s1 (stereo not shown) [Example 233, N-[(cyclopropyl-carbamoyl)methyl]-2-[5-fluoro-6-(2-methyl-1-oxo-1,2-dihydro-isoquinolin-4-yl)-1,3-benzothiazol-2-yl]-2-(propane-2-sulfonyl) acetamide] | 26 nM |
